This passage reports T/C results from PubChem BioAssay AID330 (DTP/NCI, 2004).

The assay concerns P388 leukemia ip, CD2F1 mice, survival T/C. Kind of assay: NCI In Vivo Anticancer Drug Screen. Data for tumor model P388 Leukemia (intraperitoneal) in CD2F1 (CDF1) mice. The conditions noted are these: endpoint: median survival time, higher = longer survival. The essentials:
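Mice carrying the transplanted tumor received test compound or vehicle. Survival was recorded in each group, and the value is the treated-group measurement divided by that of the vehicle-treated control group.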

Where [1] appears, read: dose: 50.0 mg/kg/injection, schedule: Q01DX005 (ip), vehicle: saline with Tween-80.
Setting [2] is: dose: 100.0 mg/kg/injection, schedule: Q01DX005 (ip), vehicle: saline with Tween-80.
Where [3] appears, read: dose: 200.0 mg/kg/injection, schedule: Q01DX005 (ip), vehicle: saline with Tween-80.
[4] abbreviates: dose: 3.12 mg/kg/injection, schedule: Q01DX009 (ip), vehicle: saline with Tween-80.
Where [5] appears, read: dose: 50.0 mg/kg/injection, schedule: Q01DX009 (ip), vehicle: saline.
[6] abbreviates: dose: 100.0 mg/kg/injection, schedule: Q01DX009 (ip), vehicle: saline.
[7] abbreviates: dose: 200.0 mg/kg/injection, schedule: Q01DX009 (ip), vehicle: saline.
Setting [8] is: dose: 50.0 mg/kg/injection, schedule: Q01DX009 (ip), vehicle: saline with Tween-80.
[9] abbreviates: dose: 100.0 mg/kg/injection, schedule: Q01DX009 (ip), vehicle: saline with Tween-80.
The mark [10] stands for this setting: dose: 200.0 mg/kg/injection, schedule: Q01DX009 (ip), vehicle: saline with Tween-80.

Molecules are shown by their SMILES. “And” between values parts separate entries of the source, which are not always exact repeats. Identical values can stand only once. Toxic doses and inconclusive results are not listed.

Regarding `CC1CC(C(=O)O)N1` (stereo not given), the T/C runs as follows: (dose: 50.0 mg/kg/injection, schedule: Q01DX005 (ip), vehicle: saline) 101 % of control; (dose: 100.0 mg/kg/injection, schedule: Q01DX005 (ip), vehicle: saline) 98 % of control; (dose: 200.0 mg/kg/injection, schedule: Q01DX005 (ip), vehicle: saline) 97 % of control.
For `CNC(=O)c1ccccc1C1(O)c2ccccc2CCc2ccccc21`, the T/C under setting [1] was 94 % of control, the T/C under setting [2] was 93 % of control and the T/C under setting [3] is 90 % of control.
Take `[Cl][Zr][Cl].[c-]1[c-][c-][c-](Cc2ccccc2)[c-]1.[c-]1[c-][c-][c-](Cc2ccccc2)[c-]1`: the T/C is 104 % of control under setting [4]; 89 % of control (dose: 6.25 mg/kg/injection, schedule: Q01DX009 (ip), vehicle: saline with Tween-80); 86 % of control (dose: 12.5 mg/kg/injection, schedule: Q01DX009 (ip), vehicle: saline with Tween-80).
Regarding `NNC(=O)C(=O)NNC1CCCCC1`, the T/C is 101 % of control (dose: 100.0 mg/kg/injection, schedule: Q01DX009 (ip), vehicle: Klucel (hydroxypropylcellulose) (HPC)) and 104 % of control (dose: 200.0 mg/kg/injection, schedule: Q01DX009 (ip), vehicle: Klucel (hydroxypropylcellulose) (HPC)).
With `CCS(=O)(=O)OCCF`, the T/C (dose: 0.78 mg/kg/injection, schedule: Q01DX009 (ip), vehicle: saline with Tween-80) is 106 % of control; the T/C (dose: 1.56 mg/kg/injection, schedule: Q01DX009 (ip), vehicle: saline with Tween-80) is 111 % of control; the T/C under setting [4] is 106 % of control and 91 % of control.
With `COP(=O)(N/N=C/C(=O)O)OC`, the T/C (dose: 12.5 mg/kg/injection, schedule: Q01DX009 (ip), vehicle: water) was 104 % of control; the T/C (dose: 25.0 mg/kg/injection, schedule: Q01DX009 (ip), vehicle: water) was 103 % of control; the T/C (dose: 50.0 mg/kg/injection, schedule: Q01DX009 (ip), vehicle: water) was 101 % of control; the T/C (dose: 100.0 mg/kg/injection, schedule: Q01DX009 (ip), vehicle: water) is 96 % of control; the T/C (dose: 200.0 mg/kg/injection, schedule: Q01DX009 (ip), vehicle: water) is 95 % of control.
On to `Nc1ccc(N=Nc2cccc3c2Oc2ccccc2O3)c(N)n1`, for which the T/C under setting [1] was 98 % of control, the T/C under setting [2] is 91 % of control and the T/C under setting [3] is 105 % of control.
In the case of `COc1cccc2c1C(=N)c1c(O)c3c(c(O)c1C2=O)CC(O)(C(=O)CO)CC3OC1CC(N2CCOCC2C#N)C(O)C(C)O1` (stereo not given), the T/C is, setting by setting: (dose: 0.25 mg/kg/injection, schedule: Q04DX003 (ip), vehicle: saline) 117 % of control; (dose: 0.5 mg/kg/injection, schedule: Q04DX003 (ip), vehicle: saline) 157 % of control; (dose: 1.0 mg/kg/injection, schedule: Q04DX003 (ip), vehicle: saline) 111 % of control and 97 % of control.
Consider `COc1ccc([N+](=O)[O-])c(C=O)c1OS(=O)(=O)c1ccc(C)c([N+](=O)[O-])c1`, for which the T/C runs as follows: (dose: 25.0 mg/kg/injection, schedule: Q01DX009 (ip), vehicle: distilled water + Tween-80) 93 % of control; (dose: 100.0 mg/kg/injection, schedule: Q01DX009 (ip), vehicle: distilled water + Tween-80) 98 % of control; (dose: 200.0 mg/kg/injection, schedule: Q01DX009 (ip), vehicle: distilled water + Tween-80) 90 % of control; (dose: 400.0 mg/kg/injection, schedule: Q01DX009 (ip), vehicle: distilled water + Tween-80) 90 % of control.
Turning to `O=C(O)C1Cc2c([nH]c3ccccc23)C(c2cccs2)N1` (stereo not given), the T/C is, setting by setting: (dose: 60.0 mg/kg/injection, schedule: Q01DX005 (ip), vehicle: Klucel (hydroxypropylcellulose) (HPC)) 100 % of control; (dose: 120.0 mg/kg/injection, schedule: Q01DX005 (ip), vehicle: Klucel (hydroxypropylcellulose) (HPC)) 96 % of control; (dose: 240.0 mg/kg/injection, schedule: Q01DX005 (ip), vehicle: Klucel (hydroxypropylcellulose) (HPC)) 97 % of control.
In the case of `C=[CH][Sn]([Cl])([Cl])[CH]=C.COc1ccc(P(=O)(c2ccc(OC)cc2)c2ccc(OC)cc2)cc1`, the T/C (dose: 25.0 mg/kg/injection, schedule: Q04DX003 (ip), vehicle: saline) was 100 % of control and 113 % of control; the T/C (dose: 50.0 mg/kg/injection, schedule: Q04DX003 (ip), vehicle: saline) was 100 % of control and 111 % of control; the T/C (dose: 100.0 mg/kg/injection, schedule: Q04DX003 (ip), vehicle: saline) was 100 % of control and 115 % of control and 120 % of control; the T/C (dose: 200.0 mg/kg/injection, schedule: Q04DX003 (ip), vehicle: saline) is 100 % of control and 111 % of control; the T/C (dose: 400.0 mg/kg/injection, schedule: Q04DX003 (ip), vehicle: saline) was 117 % of control.
With `CCCCCCC(=O)/C=C/c1cccc(OCc2cccc(Cl)c2)c1`, the T/C was 96 % of control (dose: 50.0 mg/kg/injection, schedule: Q01DX005 (ip), vehicle: saline + Tween-80 + alcohol); 91 % of control (dose: 100.0 mg/kg/injection, schedule: Q01DX005 (ip), vehicle: saline + Tween-80 + alcohol); 96 % of control (dose: 200.0 mg/kg/injection, schedule: Q01DX005 (ip), vehicle: saline + Tween-80 + alcohol).
`CC1=C/C(=C(\c2cc(C)c(O)c(C(=O)O)c2)c2c(Cl)ccc(S(=O)(=O)O)c2Cl)C=C(C(=O)O)C1=O`: the T/C was 102 % of control (dose: 25.0 mg/kg/injection, schedule: Q01DX009 (ip), vehicle: saline); 102 % of control and 91 % of control under setting [5]; 108 % of control and 95 % of control under setting [6]; 98 % of control and 106 % of control under setting [7].
As to `CC(C)(C)N=C(CC(=NC(C)(C)C)Nc1ccccc1Cl)Nc1ccccc1Cl`, the T/C is 91 % of control under setting [8], 92 % of control under setting [9] and 86 % of control under setting [10].
On to `CC1=C(C)OP(=O)(O)O1`, for which the T/C reads like this: under setting [8], 100 % of control; under setting [5], 100 % of control; under setting [9], 100 % of control; under setting [6], 96 % of control; under setting [10], 95 % of control; under setting [7], 100 % of control.
For `Cc1nc2cc(C)n3c(C)nnc3n2n1`, the T/C was 105 % of control under setting [1], 100 % of control under setting [2] and 100 % of control under setting [3].
Turning to `CCOC(=O)Nc1nc2ccccc2n1CN1CCN(C)CC1`, the T/C (dose: 25.0 mg/kg/injection, schedule: Q01DX005 (ip), vehicle: Klucel (hydroxypropylcellulose) (HPC)) is 99 % of control; the T/C (dose: 50.0 mg/kg/injection, schedule: Q01DX005 (ip), vehicle: Klucel (hydroxypropylcellulose) (HPC)) was 102 % of control and 97 % of control; the T/C (dose: 100.0 mg/kg/injection, schedule: Q01DX005 (ip), vehicle: Klucel (hydroxypropylcellulose) (HPC)) was 100 % of control and 107 % of control; the T/C (dose: 200.0 mg/kg/injection, schedule: Q01DX005 (ip), vehicle: Klucel (hydroxypropylcellulose) (HPC)) is 113 % of control and 120 % of control.
`O=c1oc2nc(-c3ccccc3)[nH]c(=O)c2c2c1CCCC2`: the T/C is, setting by setting: (dose: 15.0 mg/kg/injection, schedule: Q01DX005 (ip), vehicle: Klucel (hydroxypropylcellulose) (HPC)) 92 % of control; (dose: 30.0 mg/kg/injection, schedule: Q01DX005 (ip), vehicle: Klucel (hydroxypropylcellulose) (HPC)) 86 % of control.
For the molecule `CC(C)(C)c1ccc(C(C)(C)C)c(N2C(=O)c3ccc4c5ccc6c7c(ccc(c8ccc(c3c48)C2=O)c75)C(=O)N(c2cc(C(C)(C)C)ccc2C(C)(C)C)C6=O)c1`, the T/C is, setting by setting: (dose: 60.0 mg/kg/injection, schedule: Q01DX005 (ip), vehicle: saline with Tween-80) 95 % of control; (dose: 120.0 mg/kg/injection, schedule: Q01DX005 (ip), vehicle: saline with Tween-80) 90 % of control; (dose: 240.0 mg/kg/injection, schedule: Q01DX005 (ip), vehicle: saline with Tween-80) 99 % of control.
